Usually EC50 stands for the concentration at which the effect is half-maximal.

Molecules are shown by their SMILES. Like-named read-outs stand apart in the source and are kept apart here.

The values below come from patent US9598362B2, “Benzidine derivative, method for preparing same, and pharmaceutical composition containing benzidine derivative for treating liver disease caused by hepatitis C virus” (priority 2013, dated 2017).

One test has as its system HCV (JFH-5aFlucm4). Put plainly: Evaluation of anti-HCV activity 1: huh7.5.1 cells inoculated with HCV carrying renilla luciferase reporter. It is filed as cell-based. The conditions noted are these: Hepatitis C virus. How it is done:
To evaluate the anti-HCV activity of the compound represented by formula 1 of the present invention, the following experiment was performed.
The hepatoma cell line huh7.5.1 was distributed in a 12-well cell culture plate at the density of 50,000 cells/well. The cells were cultured in DMEM (Dulbecco's Modified Eagle's Medium 12800-017, GIBCO Co.) supplemented with 10% (v/v) FBS (Fetal Bovine Serum SH30406.02, Hyclone Co.) and 1% (v/v) antibiotics (penicillin/streptomycin solution SV30010, Hyclone Co.) in a 37° C. 6.0% CO2 incubator (CO2 Incubator 311, Forma Scientific Co, Lnc. USA) for 24 hours to lead cell attachment on the plate. Then, the cells were inoculated with HCV (JFH-5aFlucm4, PLoS One. 2011; 6(8):e228808.) having renilla luciferase gene as a reporter for 3 hours. Upon completion of the virus inoculation, the cell culture medium was replaced with the medium containing the compounds prepared in Examples 1˜24 at the concentration of 1 μM each. The cells were cultured in a 37° C. 6.0% CO2 incubator (CO2 Incubator 311, Forma Scientific Co, Lnc. USA) for 3 days. Three days after the infection, the cell culture medium was collected to measure the cytotoxicity in the following Experimental Example 3. The cells attached on the plate were washed with PBS (phosphate buffered saline) and then lysed by treating 100 μl of 1× passive lysis buffer (Promega, E1941). The cell lysate (10 μl) was added to renilla luciferase assay reagent (50 μl) in renilla luciferase assay system (Promega, E2820), followed by measurement of luminescence for 10 seconds using the luciferase measure program with Luminometer (GLOMAX 20/20 Luminometer, Promega). At this time, the measurement of luminescence was performed in triplicate with the groups treated with the compounds of Examples 1˜24 and the non-treated control group. The mean value was calculated and compared. The luminescence of each compound over the concentration was converted into EC50 (half maximal effective concentration) by using sigma plot program, and the results are shown in Table 2.

The subject of a further test is HCV replicon NK/R2AN. Put plainly: Evaluation of anti-HCV activity 2: inhibition of HCV replication, huh7.5.1 cells with replicon NK/R2AN, renilla luciferase. It is filed as cell-based. The conditions noted are these: for EC50: Hepatitis C virus; for EC50 (in words): duplicated HCV treated with compound. As to the method: To evaluate the anti-HCV activity, that is the activity to inhibit HCV replication, of the compound represented by formula 1 of the present invention, the following experiment was performed.
The hepatoma cell line huh7.5.1 having NK/R2AN, the replicon with which the replication and translation of HCV could be measured, was distributed in a 12-well cell culture plate at the density of 50,000 cells/well. The cells were cultured in DMEM (Dulbecco's Modified Eagle's Medium 12800-017, GIBCO Co.) supplemented with 10% (v/v) FBS (Fetal Bovine Serum SH30406.02, Hyclone Co.), 1% (v/v) antibiotics (penicillin/streptomycin solution SV30010, Hyclone Co.), and G418 (600 μg/mL, Calbiochem) in a 37° C. 6.0% CO2 incubator (CO2 Incubator 311, Forma Scientific Co, Lnc. USA) for 24 hours to lead cell attachment on the plate. Then, the cells were inoculated with HCV having renilla luciferase gene as a reporter for 3 hours. Upon completion of the virus inoculation, the cell culture medium was replaced with the medium containing the compounds prepared in Examples 1˜24 were added to the culture medium at the concentrations of 40 pM˜1 μM each. The cells were cultured in a 37° C. 6.0% CO2 incubator (CO2 Incubator 311, Forma Scientific Co, Lnc. USA) for 3 days. Three days after the infection, the cell culture medium was collected to measure the cytotoxicity in the following Experimental Example 3. The cells attached on the plate were washed with PBS (phosphate buffered saline) and then lysed by treating 100 μl of 1× passive lysis buffer (Promega, E1941). The cell lysate (10 μl) was added to renilla luciferase assay reagent (50 μl) in renilla luciferase assay system (Promega, E2820), followed by measurement of luminescence for 10 seconds using the luciferase measure program with Luminometer (GLOMAX 20/20 Luminometer, Promega). At this time, the measurement of luminescence was performed in triplicate with the groups treated with the compounds of Examples 1˜24 and the non-treated control group. The mean value was calculated and compared. The luminescence of each compound over the concentration was converted into EC50 (half maximal effective concentration) by using sigma plot program, and the results are shown in Table 3. At this time, when EC50 was under 100 pM, it was marked as A; when EC50 was in the range of 100 pM 1 nM, it was marked as B; when EC50 was in the range of 1 nM˜100 nM, it was marked as C; and when EC50 was over 100 nM, it was marked as D. The results are shown in Table 3.
A general note: In antiviral work, replicon cells carry a viral genome segment that copies itself.

Where [1] appears, read: Huh-7.5.1, 72 h, read-out: EC50 grade.
Where [2] appears, read: Huh-7.5.1, replicon huh7.5.1 cells, Table 3, read-out: EC50.

`COC(=O)N[C@@H](C(=O)N1CCC[C@@H]1C(=O)Nc1ccc(-c2ccc(NC(=O)[C@H]3CCCN3C(=O)[C@H](NC(=O)OC)c3ccccc3)cc2)cc1)c1ccccc1` [Example 8, dimethyl((1R,1′R)-((2R,2′R)-2,2′-(([1,1′-biphenyl]-4,4′-diylbis(azandiyl))bis(carbonyl))bis(pyrrolidine-2,1-diyl))bis(2-oxo-1-phenylethane-2,1-diyl))dicarbamate]: the EC50 in the test with HCV (JFH-5aFlucm4) (setting [1]) is > 100 nM; in the test with HCV replicon NK/R2AN (setting [1]), 1 to 100 nM.

Turning to `COC(=O)N[C@@H](C(=O)N1CC(=O)C[C@H]1C(=O)Nc1ccc(-c2ccc(NC(=O)[C@@H]3CC(=O)CN3C(=O)[C@H](NC(=O)OC)c3ccccc3)cc2)cc1)c1ccccc1` [Example 9, dimethyl((1R,1′R)-((5S,5′S)-5,5′-(([1,1′-biphenyl]-4,4′-diylbis(azandiyl))bis(carbonyl))bis(3-oxopyrrolidine-5,1-diyl))bis(2-oxo-1-phenylethane-2,1-diyl))dicarbamate], the EC50 in the test on HCV (JFH-5aFlucm4) (Huh-7.5.1) was < 1 nM; with HCV (JFH-5aFlucm4) (setting [1]), < 1 nM; in the test with HCV replicon NK/R2AN (Huh-7.5.1), < 0.1 nM; in the test on HCV replicon NK/R2AN (setting [1]), < 0.1 nM. The “EC50 (in words)” value in the test with HCV replicon NK/R2AN is given as “significantly low”.

As for `COC(=O)N[C@@H](C(=O)N1CCCC[C@H]1C(=O)Nc1ccc(-c2ccc(NC(=O)[C@@H]3CCCCN3C(=O)[C@H](NC(=O)OC)c3ccccc3)cc2)cc1)c1ccccc1` [Example 10, dimethyl((1R,1′R)-((2S,2′S)-2,2′-(([1,1′-biphenyl]-4,4′-diylbis(azandiyl))bis(carbonyl))bis(piperidine-2,1-diyl))bis(2-oxo-1-phenylethane-2,1-diyl))dicarbamate], the EC50 in the test with HCV (JFH-5aFlucm4) (setting [1]) is > 100 nM; in the test with HCV replicon NK/R2AN (setting [1]), 1 to 100 nM.

As to `COC(=O)N[C@@H](C(=O)N1CCCC[C@@H]1C(=O)Nc1ccc(-c2ccc(NC(=O)[C@H]3CCCCN3C(=O)[C@H](NC(=O)OC)c3ccccc3)cc2)cc1)c1ccccc1` [Example 11, dimethyl((1R,1′R)-((2R,2′R)-2,2′-(([1,1′-biphenyl]-4,4′-diylbis(azandiyl))bis(carbonyl))bis(piperidine-2,1-diyl))bis(2-oxo-1-phenylethane-2,1-diyl))dicarbamate], the EC50 in the test with HCV (JFH-5aFlucm4) (setting [1]) and in the test on HCV replicon NK/R2AN (setting [1]) was > 100 nM in each case.

Regarding `COC(=O)N[C@@H](C(=O)N1CCC[C@]1(C)C(=O)Nc1ccc(-c2ccc(NC(=O)[C@@]3(C)CCCN3C(=O)[C@H](NC(=O)OC)c3ccccc3)cc2)cc1)c1ccccc1` [Example 12, dimethyl((1R,1′R)-((2S,2′S)-2,2′-(([1,1′-biphenyl]-4,4′-diylbis(azandiyl))bis(carbonyl))bis(2-methylpyrrolidine-2,1-diyl))bis(2-oxo-1-phenylethane-2,1-diyl))dicarbamate], the EC50 is > 100 nM in the test with HCV (JFH-5aFlucm4) (setting [1]) and 1 to 100 nM in the test with HCV replicon NK/R2AN (setting [1]).

On to `CN(C)[C@@H](C(=O)N1CCC[C@H]1C(=O)Nc1ccc(-c2ccc(NC(=O)[C@@H]3CCCN3C(=O)[C@@H](c3ccccc3)N(C)C)cc2)cc1)c1ccccc1` [Example 14, (S,2S,2′S)—N,N′-(biphenyl-4,4′-diyl)bis(1-((S)-2-(dimethylamino)-2-phenylacetyl)pyrrolidine-2-carboxamide)], for which the results for the EC50 in the test with HCV (JFH-5aFlucm4) (setting [1]) and in the test on HCV replicon NK/R2AN (setting [1]) were 1 to 100 nM and 0.1 to 1 nM, respectively.

Take `CCN(CC)[C@@H](C(=O)N1CCC[C@H]1C(=O)Nc1ccc(-c2ccc(NC(=O)[C@@H]3CCCN3C(=O)[C@@H](c3ccccc3)N(CC)CC)cc2)cc1)c1ccccc1` [Example 15, (S,2S,2′S)—N,N-(biphenyl-4,4′-diyl)bis(1-((S)-2-(diethylamino)-2-phenylacetyl)pyrrolidine-2-carboxamide)]: the EC50 was in the range of 1 to 100 nM in the test with HCV (JFH-5aFlucm4) (setting [1]) and 0.1 to 1 nM in the test on HCV replicon NK/R2AN (setting [1]).

As for `COC(=O)N[C@@H](C(=O)N1CSC[C@H]1C(=O)Nc1ccc(-c2ccc(NC(=O)[C@@H]3CSCN3C(=O)[C@H](NC(=O)OC)c3ccccc3)cc2)cc1)c1ccccc1` [Example 21, dimethyl(1S,1S′)-2,2′-((4R,4R)-4,4′-(biphenyl-4,4′-diylbis(azandiyl))bis(oxomethylene)bis(thiazolidine-4,3-diyl))bis(2-oxo-1-phenylethane-2,1-diyl)bicarbamate], the EC50 in the test with HCV (JFH-5aFlucm4) (setting [1]) was 1 to 100 nM; in the test on HCV replicon NK/R2AN (Huh-7.5.1) it was < 0.1 nM; with HCV replicon NK/R2AN (setting [1]), < 0.1 nM. Further, the “EC50 (in words)” value in the test with HCV replicon NK/R2AN is reported as “significantly low”.

Take `COC(=O)N[C@@H](C(=O)N1CCC[C@H]1C(=O)Nc1ccc2c(c1)C(F)(F)c1cc(NC(=O)[C@@H]3CCCN3C(=O)[C@H](NC(=O)OC)c3ccccc3)ccc1-2)c1ccccc1` [Example 22, dimethyl((1R,1′R)-((2S,2′S)-2,2′-(((9,9-difluoro-9H-fluorene-2,7-diyl)bis(azandiyl))bis(carbonyl))bis(pyrrolidine-2,1-diyl))bis(2-oxo-1-phenylethane-2,1-diyl))dicarbamate]: the EC50 is < 1 nM in the test on HCV (JFH-5aFlucm4) (Huh-7.5.1), < 1 nM in the test on HCV (JFH-5aFlucm4) (setting [1]), < 0.1 nM in the test on HCV replicon NK/R2AN (setting [1]) and < 0.1 nM with HCV replicon NK/R2AN (setting [2]). Also, in the test on HCV replicon NK/R2AN, the “EC50 (in words)” value is recorded as “significantly low”.

As for `COC(=O)N[C@@H](C(=O)N1CCC[C@H]1C(=O)Nc1ccc2c(c1)C(C)(C)c1cc(NC(=O)[C@@H]3CCCN3C(=O)[C@H](NC(=O)OC)c3ccccc3)ccc1-2)c1ccccc1` [Example 23, dimethyl((1R,1′R)-((2S,2′S)-2,2′-(((9,9-dimethyl-9H-fluorene-2,7-diyl)bis(azandiyl))bis(carbonyl))bis(pyrrolidine-2,1-diyl))bis(2-oxo-1-phenylethane-2,1-diyl))dicarbamate], the EC50 was < 1 nM in the test with HCV (JFH-5aFlucm4) (Huh-7.5.1), < 1 nM with HCV (JFH-5aFlucm4) (setting [1]), < 0.1 nM in the test on HCV replicon NK/R2AN (setting [1]) and < 0.1 nM in the test with HCV replicon NK/R2AN (setting [2]). Further, the “EC50 (in words)” value in the test with HCV replicon NK/R2AN is recorded as “significantly low”.

For the compound `COC(=O)N[C@@H](C(=O)N1CCC[C@H]1C(=O)Nc1ccc2c(c1)C(=O)c1cc(NC(=O)[C@@H]3CCCN3C(=O)[C@H](NC(=O)OC)c3ccccc3)ccc1-2)c1ccccc1` [Example 24, dimethyl((1R,1′R)-((2S,2′S)-2,2′-(((9-oxo-9H-fluorene-2,7-diyl)bis(azandiyl))bis(carbonyl))bis(pyrrolidine-2,1-diyl))bis(2-oxo-1-phenylethane-2,1-diyl))dicarbamate], the EC50 in the test with HCV (JFH-5aFlucm4) (setting [1]) was 1 to 100 nM; in the test on HCV replicon NK/R2AN (setting [1]), < 0.1 nM; with HCV replicon NK/R2AN (setting [2]) it was < 0.1 nM. The “EC50 (in words)” value with HCV replicon NK/R2AN is “significantly low”.
